Assay results taken from US12012417B2, “N-substituted tetrahydrothienopyridine derivatives and uses thereof” (NOVARTIS AG, priority 2018, dated 2024).

How the values were obtained:
[1] = system: Dengue 1 virus MY97-10245; test: High-content imaging cell-based flavivirus immunodetection (HCl-CFI) assay, Dengue 1; conditions: Dengue virus, A549, 48 h, read-out: Dengue 1 virus MY97-10245 in A549 using HCl [Inhibitor/IC50] Qualified AC50
[2] = system: Dengue 2 virus MY97-10340; test: High-content imaging cell-based flavivirus immunodetection (HCl-CFI) assay, Dengue 2; conditions: Dengue virus, A549, 48 h, read-out: Dengue 2 virus MY97-10340 in A549 using HCl [Inhibitor/IC50] Qualified AC50, A549 cells, MOI 0.3, 48 h, viral E protein expression
Outline: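 A549 cells infected at MOI 0.3, treated with 3-fold, 10-point compound dilutions for 48 h. After paraformaldehyde fixation, viral E protein immunostained with 4G2 antibody and nuclei counterstained; imaged by high-content imaging. EC50 = concentration reducing E protein expression by 50%, from dose-response curves.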

[3] = system: Dengue 3 virus MY05-34640-WT-C6/36; test: High-content imaging cell-based flavivirus immunodetection (HCl-CFI) assay, Dengue 3; conditions: Dengue virus, A549, 48 h, read-out: Dengue 3 virus MY05-34640-WT-C6/36 in A549 using HCl [Inhibitor/IC50] Qualified AC50
[4] = system: Dengue 4 virus MY01-22713; test: High-content imaging cell-based flavivirus immunodetection (HCl-CFI) assay, Dengue 4; conditions: Dengue virus, A549, 48 h, read-out: Dengue 4 virus MY01-22713 in A549 using HCl [Inhibitor/IC50] Qualified AC50, A549 cells, 48 h, viral E protein expression
DENV-2 (strain TSV01) [5] = test: Antiviral in vivo efficacy in dengue mouse model; conditions: oral gavage, 3 consecutive days, AG129 mice, qRT-PCR
Method: Antiviral In Vivo Efficacy in Dengue Mouse Model
AG129 mice (lacking IFN-α/β and IFN-γ receptors, (Schul, W. et al. 2007. J. Infect. Dis., 195, 665-74)) was obtained from Biological Resource Center (BRC), Singapore. Male and female AG129 mice aged 8 to 14 weeks (weighed 20-30 grams, n=6 per group) were used. Infection of DENV-2 (strain TSV01) was given intraperitoneally (500 μL, 1.4×10^7 pfu/mL). The DENV-2 strain TSVO1 was used in the mouse model and was propagated in C6/36 mosquito cells. Compounds were formulated (% w/w) in either 0.5% methylcellulose, 0.5% Tween and 99.0% deionized water or 20% polyethylene glycol (PEG300), 10% Cremophor RH40, and 70% 100 mM pH 3 citrate buffer (% v/v). Compounds were dosed immediately after infection through oral gavage for 3 consecutive days. Terminal blood sample (anticoagulant: K2EDTA) was obtained for viremia read-out by qRT-PCR as previously described (Santiago, G. A., et al. 2013. PLoS Negl. Trop. Dis., 7, e2311).

DENV-2 (strain TSV01) [6] = test: Antiviral in vivo efficacy in dengue mouse model; conditions: 180 mg/kg single dose, oral gavage, AG129 mice, qRT-PCR

SMILES | EC50 [1] | EC50 [2] | EC50 [3] | EC50 [4] | Log DENV-2 viremia reduction (DENV-2 (strain TSV01) [5]; 30 mg/kg b.i.d.) | Log DENV-2 viremia reduction (DENV-2 (strain TSV01) [5]; 10 mg/kg b.i.d.) | Log DENV-2 viremia reduction (DENV-2 (strain TSV01) [5]; 60 mg/kg q.d.) | Log DENV-2 viremia reduction (DENV-2 (strain TSV01) [5]; 100 mg/kg b.i.d.) | Log DENV-2 viremia reduction (DENV-2 (strain TSV01) [6]) | Log DENV-2 viremia reduction (DENV-2 (strain TSV01) [5]; 100 mg/kg q.d.)
CC1(C)Cc2sc(NC(=O)Cc3ccc(S(N)(=O)=O)cc3)c(C#N)c2CN1CC1CC(F)(F)C1 [Example 77, N-(3-cyano-5-((3,3-difluorocyclobutyl)methyl)-6,6-dimethyl-4,5,6,7-tetrahydrothieno[3,2-c]pyridin-2-yl)-2-(4-sulfamoylphenyl)acetamide] | 100 to 1000 nM | < 100 nM | < 100 nM | < 100 nM | 0.62 Log | – | – | – | – | –
CC1(C)Cc2sc(NC(=O)Cc3ccc(S(N)(=O)=O)cc3)c(C#N)c2CN1CC1CCCCC1 [Example 71, N-(3-cyano-5-(cyclohexylmethyl)-6,6-dimethyl-4,5,6,7-tetrahydrothieno[3,2-c]pyridin-2-yl)-2-(4-sulfamoylphenyl)acetamide] | < 100 nM | < 100 nM | < 100 nM | < 100 nM | 1.45 Log | 0.51 Log | 1.54 Log | 3.0 Log | 1.49 Log | –
N#Cc1c(NC(=O)Cc2ccc(S(N)(=O)=O)cc2)sc2c1CCN(Cc1cc(Cl)ccc1Cl)C2 [Example 109, N-(3-cyano-6-(2,5-dichlorobenzyl)-4,5,6,7-tetrahydrothieno[2,3-c]pyridin-2-yl)-2-(4-sulfamoylphenyl)acetamide] | > 1000 nM | 100 to 1000 nM | 100 to 1000 nM | 100 to 1000 nM | – | – | – | 1.60 Log | – | –
CC1Cc2sc(NC(=O)Cc3ccc(S(N)(=O)=O)cc3)c(C#N)c2CN1Cc1cccc(F)c1 (centres unmarked) [Example 53, N-(3-cyano-5-(3-fluorobenzyl)-6-methyl-4,5,6,7-tetrahydrothieno[3,2-c]pyridin-2-yl)-2-(4-sulfamoylphenyl)acetamide] | 100 to 1000 nM | < 100 nM | < 100 nM | < 100 nM | 0.80 Log | – | – | 1.78 Log | – | 1.06 Log
N#Cc1c(NC(=O)Cc2ccc(S(N)(=O)=O)cc2)sc2c1CCN(Cc1cccc(F)c1)C2 [Example 100, N-(3-cyano-6-(3-fluorobenzyl)-4,5,6,7-tetrahydrothieno[2,3-c]pyridin-2-yl)-2-(4-sulfamoylphenyl)acetamide] | – | – | – | – | – | – | – | 1.50 Log | – | –
COc1cc(CC(=O)Nc2sc3c(c2C#N)CN(CC2CCCCC2)CC3)ccc1S(N)(=O)=O [Example 83, N-(3-cyano-5-(cyclohexylmethyl)-4,5,6,7-tetrahydrothieno[3,2-c]pyridin-2-yl)-2-(3-methoxy-4-sulfamoylphenyl)acetamide] | – | – | – | – | 0.60 Log | – | – | – | – | 0.94 Log
